Test results taken from patent US20230159916A1, “METHODS OF FUNCTIONAL LINKAGE OF CHROMOSOMAL POSITIONS” (ARPEGGIO BIOSCIENCES, INC., priority 2020, published 2023).

Assays:
HMOX1 [1] = assay: nascent RNA sequencing of HT-1080 cells exposed to GPX4 inhibitors; format: cell-based; conditions: HT-1080, 1 μM, 1 hour, Pval<10^−2
Method: (§1) To assess the transcriptional response of a cell to inhibition of GPX4, we exposed two cell lines to two different chemical inhibitors of GPX4 (ML162 and RSL3; available from Sigma Aldrich and Apex Bio respectively) and examined the transcriptional responses using a nascent RNA sequencing protocol. Briefly, a fibrosarcoma cell line HT-1080 and a lung fibroblast cell line IMR90 were exposed to 1 μM ML162 or 1 μM RSL3 for 1 hour and the nascent RNA sequencing protocol was performed.

HMOX1 [2] = assay: RT-qPCR of HMOX1 expression in HT-1080 cells; format: cell-based; conditions: for expression of HMOX1 relative to ACTB, absence of ferrostatin-1: HT-1080, 1 μM, four hours; for effect of ferrostatin-1 on the substance's induction of HMOX1: HT-1080, sodium arsenite 80 μM, hemin 5 μM, RSL3 1 μM, with or without 1 μM ferrostatin-1, four hours, normalized to DMSO
Method: (§2) To confirm HMOX1 induction by the GPX4 inhibitors, an RT-qPCR assay was performed using three ferroptosis sensitive cancer cell lines: the fibrosarcoma cell line HT-1080, a Ewing's sarcoma cell line A673, and a renal clear cell carcinoma cell line 786-O. Briefly, cells were exposed to 1 μM ML162 or 1 μM RSL3 for 4 hours, RNA was isolated and an RT-qPCR assay was performed.
To further validate induction of HMOX1 mRNA expression by GPX4 inhibition, RT-qPCR was performed using varying doses of the RSL3 inhibitor. Briefly, HT-1080 cells were exposed to 5 μM RSL3, 1 μM RSL3, and 0.2 μM RSL3 for four hours, RNA was isolated and an RT-qPCR assay was performed to quantify HMOX1 expression. DMSO was used as a control exposure.
(§3) Briefly, HT-1080, A673, and 786-O cells were exposed to 1 μM ML162 or 1 μM RLS3 with or without 1 μM ferrostatin-1 for four hours, RNA was isolated and an RT-qPCR assay was performed to quantify HMOX1 expression. DMSO was used as a control exposure.
Sodium arsenite and hemin are known to be inducers of general oxidative stress in cells. Briefly, HT-1080 cells were exposed to sodium arsenite (80 μM), hemin (5 μM), ML162 (1 μM), or RSL3 (1 μM) with or without 1 μM ferrostatin-1 for four hours, RNA was isolated and an RT-qPCR assay was performed to quantify HMOX1 expression. DMSO was used as a control exposure.

HMOX1 [3] = assay: RT-qPCR of HMOX1 expression in A673 cells; format: cell-based; conditions: A673, 1 μM, four hours
Method: as §2, §3

HMOX1 [4] = assay: RT-qPCR of HMOX1 expression in 786-O cells; format: cell-based; conditions: 1 μM, four hours
Method: as §2, §3

HMOX1 [5] = assay: nascent RNA sequencing of IMR90 cells exposed to GPX4 inhibitors; format: cell-based; conditions: IMR90, 1 μM, 1 hour, Pval 10^−3
Method: as §1

[6] = tested on: HT-1080, A673, and 786-O cells lines; conditions: ferrostatin-1 added to the culture media; HT-1080, A673, 786-O; cited from earlier work
HMOX1 [7] = assay: RT-qPCR of HMOX1, ferrostatin-1 rescue of GPX4 inhibitor-mediated induction in HT-1080, A673 and 786-O cells; format: cell-based; conditions: HT-1080, A673, 786-O; 1 μM ferrostatin-1 with 1 μM ML162 or RSL3, four hours
Method: as §3

Molecule	differential expression of HMOX1 (nascent RNA sequencing) (HMOX1 [1])	expression of HMOX1 relative to ACTB, absence of ferrostatin-1 (HMOX1 [2])	expression of HMOX1 relative to ACTB, absence of ferrostatin-1 (HMOX1 [3])	expression of HMOX1 relative to ACTB, absence of ferrostatin-1 (HMOX1 [4])	differential expression of HMOX1 (nascent RNA sequencing) (HMOX1 [5])	effect of ferrostatin-1 on the substance's induction of HMOX1 (HMOX1 [2])	further results
COc1ccc(N(C(=O)CCl)C(C(=O)NCCc2ccccc2)c2cccs2)cc1Cl (centres unmarked) [ML162]	strongly differentially expressed	HMOX1 expression was observed in all three cell lines	HMOX1 expression was observed in all three cell lines	HMOX1 expression was observed in all three cell lines	strongly differentially expressed		expression of HMOX1 relative to ACTB, presence of ferrostatin-1 (HMOX1 [2]; HT-1080, 1 μM inhibitor with 1 μM ferrostatin-1, four hours): induced HMOX1 even in the presence of ferrostatin-1
COC(=O)c1ccc([C@@H]2c3[nH]c4ccccc4c3C[C@@H](C(=O)OC)N2C(=O)CCl)cc1 [RSL3]	strongly differentially expressed	HMOX1 expression was observed in all three cell lines	HMOX1 expression was observed in all three cell lines	HMOX1 expression was observed in all three cell lines	strongly differentially expressed	dependent on lipid peroxidation	dose dependence of HMOX1 expression relative to ACTB (HMOX1 [2]; HT-1080, 5 μM, 1 μM and 0.2 μM RSL3, four hours): proportional to the dose
CCOC(=O)c1ccc(NC2CCCCC2)c(N)c1 [ferrostatin-1]							cellular viability of cells treated with small molecules that induce lipid peroxidation (e.g., GPX4 inhibitors) [6]: rescues cellular viability; effect of ferrostatin-1 on induction of HMOX1 by RSL3 and ML162 (HMOX1 [7]): sufficient to prevent induction of HMOX1 in most conditions
O=[As]O [sodium arsenite]						not affected by the presence of ferrostatin-1	
hemin						not affected by the presence of ferrostatin-1	
